Data on 88 compounds can be found in a melting point compilation (Tetko et al.; mined from patent text by program, amines drawn as free bases though some values may be those of a salt).

As a reminder, the melting point is the temperature, or range, at which the solid turns liquid. The compound `CCOC(=O)CCN(C1(C(=O)O)CCCC1)S(=O)(=O)c1ccc(Oc2ccc(F)cc2)cc1` returned a melting point of 164 to 166 °C. To `CCCc1cccc2c(/C=C(\C)C(=O)O)cc(OC)c(O)c12` belongs 67 to 68 °C.

`O=C1CCc2cc(OCc3ccccc3)c(O)cc21` registered a melting point of 140 to 142 °C. As for `O=S(=O)(c1ccccc1)c1ccc2c(c1)OCCN2C1CCNC1` (stereo not drawn), the melting point was 123 to 128 °C. To `CCOC(=O)/C=C/c1cn(Cc2ccc3cc(OCc4ccccc4)ccc3c2)cc1-c1ccccc1` belongs 119 to 120 °C.

`Cc1c(S(=O)(=O)Nc2ccc3[nH]cc(CCN(C)C)c3c2)sc2ccc(Cl)cc12` returned a melting point of 226 to 227 °C.

With `COc1cc(Br)cc2c1OCCC2`, the melting point is 67 °C.

On to `COc1ccc(-c2cc(N)n[nH]2)cc1OC`, for which the melting point lay in the range of 124 to 125 °C. To `Nc1nc(N)nc(N(c2ccc(OCOc3ccc(N(c4nc(N)nc(N)n4)c4nc(N)nc(N)n4)cc3)cc2)c2nc(N)nc(N)n2)n1` belongs > 300 °C; to `N=C(N)NCc1ccc(N)c(I)c1`, 135 to 137 °C.

With `C#Cc1ccc2c(c1)C(c1ccccc1)=NCc1c(C(=O)NC)ncn1-2`, the melting point was in the range of 237 to 238 °C. Under `CCCCNC(=O)Nc1ccc(SCC)cc1C(=O)NCC1CCN(C(c2ccccc2)c2ccccc2)CC1` stands 159 to 160 °C; under `CCOc1ccc(-c2nc3n(c2-c2ccc(OCC)cc2)CCC3)cc1`, 135 to 138 °C. Regarding `Cc1nnc(NCCN2CCN(c3ncccn3)CC2)c2cc3ccccn3c12`, the melting point lay in the range of 280 to 283 °C. To `CCCn1nc2c(Cl)nc3ccccc3c2c1C` belongs 145 to 147 °C; to `CCCC(=O)Oc1ccc(C(=O)Nc2ccc3cc(CN4CCCC4)cnc3c2C)cc1`, 156 to 158 °C; to `Cc1oc(-c2ccccc2)nc1COc1ccc(/C=C/C=O)cn1`, 147 to 148 °C. For the compound `Nc1ccc(-c2ccncc2)nn1`, the melting point was in the range of 199 to 201 °C. In turn, `CN(C)CCOc1ccc(/C=C/C(=O)N2CC(CCl)c3c2cc(OCc2ccccc2)c2ncccc32)cc1` (stereo not drawn) registered a melting point of 172 to 175 °C. To `CCOC(=O)C1=C(C)NC(=S)N(C(=O)OCC)C1c1cccc(C(F)(F)F)c1` (stereo not drawn) belongs 98 to 100 °C. Under `O=C(O)C(Cc1cc(Oc2c(Cl)cc(C(F)(F)F)cc2Cl)ccc1SC(F)(F)F)C(=O)O` stands 250 °C. To `CNC(=O)N1CC(Oc2ccccc2C(F)(F)F)C1` belongs 134 to 136 °C.

Compound `CCCc1sc2nc(CN(CC)CC)c(C(=O)OCC)c(-c3ccc(Cl)cc3)c2c1C` displayed a melting point of 82 to 83 °C. Under `COC(=O)c1c(C)n(-c2ccc(Cl)cc2)c(C)cc1=O` stands 189 to 190 °C.

Consider `COC(=O)c1cn2c(C)c(C)sc2n1`, for which the melting point was 180 to 181 °C. To `O=C(O)c1ccc(CCCC2SCC(=O)N2CCC2(O)CCSCC2)cc1` (stereo not drawn) belongs 157 to 158 °C. Under `CC(=O)N1c2ccc(O)cc2C(C)=CC1(C)C` stands 214 to 216 °C. The compound `O=c1c2cnn(Cc3ccccc3)c2nc2n1CCS2` registered a melting point of 180 to 182 °C. `Cc1ccc(Oc2ccc(-c3cccs3)cc2O)c(O)c1`: the melting point was in the range of 91 to 92 °C.

Compound `COc1ccc(Cl)c(CC#N)c1` returned a melting point of 62 to 65 °C.

For the compound `COc1ccc2nc(Oc3c(Cl)cc(N)cc3Cl)sc2c1`, the melting point fell in the range of 158 to 160 °C. Turning to `COCc1nc2cccc(C(=O)O)c2n1Cc1ccc(-c2ccccc2-c2nnn[nH]2)cc1`, the melting point is 272 to 274 °C.

`CCOC(=O)NC1=NN(c2cccc(Cl)c2)C(=O)C1`: the melting point was found to be 189 °C. The compound `Cc1ccc(F)cc1C(=O)Nc1ccc(C(=O)N2Cc3cccn3-c3ncccc32)cn1` returned a melting point of 226 to 234 °C. Under `CC(C)(C)OCCOCCn1cc(C(=O)NCc2ccc(Cl)cc2)c(=O)c2cc(CN3CCOCC3)ccc21` stands 130 to 132 °C. To `CSC(=S)OC(C(=O)O)c1ccccc1` (stereo not drawn) belongs 109 to 110 °C. Under `CCOC(=O)/C(=N\OCCN)c1csc(NC(c2ccccc2)(c2ccccc2)c2ccccc2)n1` stands 126 to 144 °C. With `CN(C)S(=O)(=O)NC(=O)N1CC(c2ccccc2)C(c2ccc(Cl)cc2)=N1` (stereo not drawn), the melting point is 210 to 212 °C. Under `O=C(O)c1cccc(Oc2ccc(C(F)(F)F)cc2Cl)c1` stands 116 to 119 °C. Under `C=C1CCN(S(=O)(=O)c2ccc(Cl)c(C(=O)O)c2)CC1` stands 157 to 160 °C. Under `CC1(C)C=C(C(=O)c2ccc3c(c2)CCN(C(N)=O)C3)C(C)(C)CC1` stands 78.6 to 79.7 °C; under `Cn1cc(C(=O)O)c(=O)c2cc(F)c(-n3cccc3)cc21`, 284 to 285 °C; under `CCCCCCCCc1ncc(-c2ccc(OC(=O)[C@H]3CCCO3)cc2)cn1`, 68 °C.

With `CCc1nc2c(NC(=O)c3ccccc3)nc3ccccc3c2n1CCCCNS(C)(=O)=O`, the melting point lay in the range of 249 to 250 °C. Under `CC(C)(C)C1=NN(c2ccc(C(=O)O)cc2)C(c2cccc(F)c2)C1` (stereo not drawn) stands 218 °C.

`CCCc1nc(NC(=O)N(C)C)nc(N2CCOCC2)n1` showed a melting point of 110 to 111 °C. With `CNC(=O)n1ncc2ccc(NC(=O)/C=C/c3ccc(C(C)(C)C)cc3)cc21`, the melting point was in the range of 208 to 209 °C. To `O=C(Nc1ccc(O)cc1)OCc1ccccc1` belongs 153 to 154 °C; to `COc1cc(Br)c(Nc2nc(C)nc(-c3ccccc3C(F)(F)F)c2[N+](=O)[O-])c(OC)c1`, 147 to 148 °C. To `N#CCCNC(=O)c1cccc(-c2cccc3nc(Cc4cccc(C(F)(F)F)c4)cn23)c1` belongs 192 to 193 °C; to `CNc1cc(CCN)ccc1OC`, 90 to 92 °C; to `Cc1cc2c(s1)Nc1ccccc1N=C2N1CCN(C)[C@@H](CCc2ccccc2)C1`, 87 to 91 °C. To `COc1c(C)c(C)c2c(c1C)C(C(=O)O)C(C)(C)O2` (stereo not drawn) belongs 185 to 187 °C; to `CCCOc1cc(CCCOc2nn(Cc3ccccc3)cc2CC(=O)O)n(Cc2ccc(Cl)cc2Cl)n1`, 132 to 134 °C. Compound `CC(=O)c1ccc(O)c(CS(C)(=O)=O)c1` displayed a melting point of 206 to 208 °C. Under `CCOc1cccc2cc(S(=O)(=O)Nc3ccc(F)c(N)c3)c(=O)oc12` stands 160 to 162 °C. Under `COC(=O)c1nc2c(NC(=O)C(C)(C)C)cccn2c1C` stands 132 °C. To `O=c1c2ccc(O)cc2[nH]n1Cc1ccccc1` belongs 206 to 207 °C; to `CSCCCNC(=O)N(O)C[C@@H]1C[C@H]1c1ccccc1` (relative stereo), 103 to 104 °C.

`CON=C(C)C(C)=NOc1ncccc1N(OC)C(=O)OC` showed a melting point of 86 to 88 °C. Under `CCn1nc(OCCCc2ccc(OCCOC(C)C)cc2Oc2ncc(C(F)(F)F)cc2Cl)cc1CCC(=O)O` stands 130 to 132 °C; under `COc1cccc(OC)c1-c1cc(C(=O)NC2(C(=O)O)C3CC4CC(C3)CC2C4)nn1-c1ccc(NC=O)c2ccccc12` (stereo not drawn), 270 °C.

The compound `CC(C)(C)CNc1cc(Cl)nc(N2CCCC2)n1` returned a melting point of 130 to 135 °C. Under `COC(=O)c1ccnc2ccc(C(=O)c3ccc(Cl)cc3)cc12` stands 126 °C; under `Cc1ccc(C(=O)Nc2ccc(-n3nc(C(F)(F)F)cc3C(F)(F)F)cc2)s1`, 200 to 202 °C. Under `CCCCN(C)C(=O)CS(=O)CCCCCOc1ccc(C2=C(c3ccccc3)CCCc3ccccc32)cc1` (stereo not drawn) stands 120 to 121 °C; under `O=C1CCCC(=O)c2cc(OCc3ccccc3)ccc2N1`, 169 to 170 °C; under `CN(C)c1cccc(C(=O)Nc2ccc3ccc(Oc4ccccc4)nc3n2)c1`, 120 °C. To `Cc1cc2ccccn2c1C(=O)c1ccc2c(c1)c(=O)c(C(=O)O)cn2C` belongs 308 °C. Take `Nc1ccc(S(=O)(=O)Nc2cc(N)nc(S)n2)cc1`: the melting point was in the range of 232 to 234 °C.

The compound `O=C(O)CCNc1ccc(CNC(=O)C2Cc3ccccc3N2S(=O)(=O)c2ccc(-c3cccc(C(F)(F)F)c3)cc2)cc1` (stereo not drawn) yielded a melting point of 82 °C. Under `Cc1cccc2c1NC(=O)C2(c1ccc(O)cc1)c1ccc(O)cc1` stands 272 to 274 °C. Under `CS(=O)(=O)c1ccc(S(=O)(=O)N2CCCC(c3ccc(Cl)c(Cl)c3)=N2)cc1` stands 181 to 183 °C; under `COC(=O)c1ccccc1Cn1ccc(OCc2ccc(F)cc2)c(Br)c1=O`, 161 to 165 °C; under `Brc1ccc(C2CC(n3cncn3)c3ccccc3N2)cc1` (stereo not drawn), 158 to 160 °C. Compound `Cc1nc(-c2ccc(OCC(C)C)c([N+](=O)[O-])c2)sc1C(=O)OCC(C)C` yielded a melting point of 112 to 113 °C. To `Cc1cccc2nc(-c3cc(C(F)F)nn3-c3ccc(S(N)(=O)=O)cc3)sc12` belongs 264 to 265 °C; to `Cc1nc2sccn2c(=O)c1O`, 225 to 227 °C. Under `COc1ccc(C#N)cc1/C=C/C(=O)N[C@H](CO)CN1CCC(C(=O)c2ccc(Cl)cc2)CC1` stands 162 to 163 °C.

Regarding `COc1cc2c(cc1OC)CN(CCOc1ccc(NC(=O)c3cccc4c(=O)c5ccccc5[nH]c34)cc1)CC2`, the melting point was 154 °C. Regarding `O=C(O)c1ccc2c(c1)S(=O)(=O)c1ccccc1C2=O`, the melting point fell in the range of 285 to 287 °C. To `c1ccc(Sc2cc(Sc3ccccc3)c3ccc4c(Sc5ccccc5)cc(Sc5ccccc5)c5ccc2c3c54)cc1` belongs 230 °C; to `CCOC(=O)C(C)c1ccc2c(c1)C(=O)c1ccccc1CS2` (stereo not drawn), 91 to 93 °C; to `O=C(CCl)N1CCOc2ccccc21`, 107 to 108 °C.

Consider `NS(=O)(=O)c1nnc(NC(=O)c2ccccc2O)s1`, for which the melting point is > 250 °C.

Take `Cc1cccc(NC(=O)NCC(=O)N(CC(=O)N2CCC3(CC2)OCCO3)c2ccccc2)c1`: the melting point stood at 130 °C. Under `CCOC(=O)CC(=O)c1cc(Cl)ccc1O` stands 71.8 to 73.1 °C; under `O=C(O)[C@H](CCCCO)N1C(=O)c2ccccc2C1=O`, 162 to 163 °C.
